From ChEMBL document CHEMBL1156928, “Design of novel nicotinamides as potent and selective monoamine oxidase a inhibitors” (Bioorg Med Chem, 2010)

What was measured:
[1] = molecular target: T1, Amine oxidase [flavin-containing] A (Rattus norvegicus, UniProt P21396); experiment: Inhibition of MAOA in Sprague-Dawley rat brain mitochondria using kynuramine substrate by fluorimetry
T1 sequence (P21396 whole entry): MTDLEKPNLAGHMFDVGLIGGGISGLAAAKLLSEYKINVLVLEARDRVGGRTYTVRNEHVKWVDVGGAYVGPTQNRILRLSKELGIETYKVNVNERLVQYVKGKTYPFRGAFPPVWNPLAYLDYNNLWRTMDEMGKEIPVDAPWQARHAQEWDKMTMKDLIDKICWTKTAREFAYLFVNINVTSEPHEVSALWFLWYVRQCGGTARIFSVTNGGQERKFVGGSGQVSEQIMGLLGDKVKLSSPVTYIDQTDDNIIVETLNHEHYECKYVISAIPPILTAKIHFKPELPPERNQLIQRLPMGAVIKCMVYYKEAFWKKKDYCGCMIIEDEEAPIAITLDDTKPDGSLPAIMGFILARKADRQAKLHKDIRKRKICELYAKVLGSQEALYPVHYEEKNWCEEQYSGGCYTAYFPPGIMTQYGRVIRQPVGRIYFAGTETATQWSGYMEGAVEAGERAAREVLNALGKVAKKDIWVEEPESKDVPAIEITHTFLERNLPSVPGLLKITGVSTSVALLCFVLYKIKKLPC

[2] = molecular target: T2, Amine oxidase [flavin-containing] B (Rattus norvegicus, UniProt P19643); experiment: Inhibition of MAOB in Sprague-Dawley rat brain mitochondria using kynuramine substrate by fluorimetry
T2 sequence (P19643 whole entry): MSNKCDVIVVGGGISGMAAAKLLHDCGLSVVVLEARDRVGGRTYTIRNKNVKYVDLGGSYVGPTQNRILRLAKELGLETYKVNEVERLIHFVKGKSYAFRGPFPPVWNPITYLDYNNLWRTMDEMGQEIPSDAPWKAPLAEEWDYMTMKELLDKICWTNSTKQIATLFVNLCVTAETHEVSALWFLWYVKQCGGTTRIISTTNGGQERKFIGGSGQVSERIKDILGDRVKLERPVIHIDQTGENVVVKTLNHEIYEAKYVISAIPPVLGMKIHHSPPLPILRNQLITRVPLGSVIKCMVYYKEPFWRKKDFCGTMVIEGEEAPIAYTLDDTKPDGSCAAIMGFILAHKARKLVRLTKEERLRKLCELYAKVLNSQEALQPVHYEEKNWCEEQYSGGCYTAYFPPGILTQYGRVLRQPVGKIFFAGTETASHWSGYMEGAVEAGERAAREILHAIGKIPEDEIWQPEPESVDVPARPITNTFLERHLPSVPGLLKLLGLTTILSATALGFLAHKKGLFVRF

| Compound | IC50 [1] [µM] | IC50 [2] [µM] |
| --- | --- | --- |
| O=C(NCCN1CCOCC1)c1cnc(Cl)c(Cl)c1 | 0.084 | 48 |
| O=C(NCCN1CCOCC1)c1ccc(Cl)nc1 | 0.18 | 34 |
| O=C(NCCCN1CCOCC1)c1cnc(Cl)c(Cl)c1 | 0.1 | 45 |
| O=C(NCCCN1CCOCC1)c1cccnc1Br | 35 | 1.9 |
| O=C(NCCCN1CCOCC1)c1ccc(F)nc1 | 80 | > 100 |
| O=C(NCCN1CCOCC1)c1cccnc1Cl | 2.6 | 1.8 |
| Cc1ccc(C(=O)NCCN2CCOCC2)c(Cl)n1 | 28 | > 100 |
| O=C(NCCN1CCOCC1)c1cccnc1Br | 8.5 | 0.32 |
| O=C(NCCCN1CCOCC1)c1cccnc1Cl | 9.4 | 6.5 |
| O=C(NCCCN1CCOCC1)c1ccc(Cl)nc1 | 0.38 | 75 |
| O=C(NCCN1CCOCC1)c1ccc(F)nc1 | 15 | > 100 |
| O=C(NCCN1CCOCC1)c1ccc(Cl)cc1 [MOCLOBEMIDE] | – | > 100 |

The remaining lines, values ahead:

| IC50 [1] [µM] | IC50 [2] [µM] | Compound |
| --- | --- | --- |
| > 100 | > 100 | Cc1ccc(C(=O)NCCCN2CCOCC2)cn1 |
| 0.43 | > 100 | O=C(NCCN1CCOCC1)c1ccc(=O)[nH]c1 |
| 56 | > 100 | O=C(NCCCN1CCOCC1)c1ccc(O)nc1 |
| > 100 | > 100 | Cc1ccc(C(=O)NCCCN2CCOCC2)c(Cl)n1 |
| 12 | 82 | O=C(NCCCN1CCOCC1)c1c[nH]c(=O)c(Cl)c1 |
| 45 | > 100 | O=C(NCCN1CCOCC1)c1cccnc1O |
| 0.75 | 74 | O=C(NCCN1CCOCC1)c1cnccc1Cl |
| 26 | 55 | O=C(NCCN1CCOCC1)c1cncc(Br)c1 |
| 86 | > 100 | Cc1ccc(C(=O)NCCN2CCOCC2)cn1 |
| > 100 | > 100 | O=C(NCCCN1CCOCC1)c1ccc[nH]c1=O |
| 7.5 | 53 | O=C(NCCCN1CCOCC1)c1cnccc1Cl |
| 23 | 65 | O=C(NCCCN1CCOCC1)c1cncc(Br)c1 |
| 0.045 | 26 | O=C(NCCN1CCOCC1)c1cnc(O)c(Cl)c1 |
| > 100 | > 100 | O=C(NCCCN1CCOCC1)c1cccnc1 |
| 68 | > 100 | O=C(NCCN1CCOCC1)c1cccnc1 |
